Laboratory results taken from patent US11266655B2, “Methods and compositions for treating urea cycle disorders” (Camp4 Therapeutics Corporation, priority 2019, dated 2022).
Structures can show the parent of a compound that is named as a salt. Where two headings read alike, the source gives them in different places.

Key:
SLC25A15 = assay: RNA-seq of compound-treated primary human hepatocytes, SLC25A15 expression; format: cell-based
CPS1 = assay: RNA-seq of compound-treated primary human hepatocytes, CPS1 expression; format: cell-based; details: primary human hepatocytes, triplicate (Table 19, FIG. 11)
ARG1 = assay: RNA-seq of compound-treated primary human hepatocytes, ARG1 expression; format: cell-based; details: primary human hepatocytes, triplicate (Table 17, FIG. 9)
ASS1 = assay: RNA-seq of compound-treated primary human hepatocytes, ASS1 expression; format: cell-based; details: 10 µM
NAGS = format: cell-based, human
urea cycle genes = assay: RNA-seq of primary human hepatocytes, compounds that modulate multiple urea cycle-related genes; format: cell-based; details: primary human hepatocytes, RNA-seq; for Up-regulated Genes: urea cycle-related genes significantly increased (Table 10)
[1] = primary human hepatocytes, RNA-seq (Table 6)
[2] = 0.3 μM, primary human hepatocytes, triplicate (Table 21, FIG. 13)

## N#CC(c1ccnc(OCc2ccc(CN3CCOCC3)cc2)n1)c1nc2ccccc2s1 (centres unmarked) [AS602801]
SLC25A15; 10 µM
  Relative SLC25A15 level vs Untreated (±Standard Deviation): 2.22 ± 0.24

## Cc1cc(C(=O)NOCCO)c(Nc2ccc(I)cc2F)n(C)c1=O [AZD8330]
CPS1; 0.3 μM
  Relative CPS1 level vs Untreated (±Standard Deviation): 1.33 ± 0.03
CPS1; 3 μM
  Relative CPS1 level vs Untreated (±Standard Deviation): 1.60 ± 0.24

## O=C(NCCCNc1nc(Nc2cccc(NC(=O)N3CCCC3)c2)ncc1I)c1cccs1 [BX795]
CPS1; 3 μM
  Relative CPS1 level vs Untreated (±Standard Deviation): 1.75 ± 1.03
ARG1; 3 μM
  Relative ARGI level vs Untreated (±Standard Deviation): 1.33 ± 0.43
ARG1; 10 μM
  Relative ARGI level vs Untreated (±Standard Deviation): 1.34 ± 0.41

## N#CC(c1ccnc(OCc2ccc(CN3CCOCC3)cc2)n1)c1nc2ccccc2s1 (centres unmarked) [Bentamapimod]
ASS1
  Relative ASS1 level vs Untreated (±Standard Deviation): 1.90 ± 0.22

## C=C1/C(=C\C=C2/CCC[C@]3(C)[C@@H]([C@H](C)CCCC(C)(C)O)CC[C@@H]23)C[C@@H](O)C[C@@H]1O [Calcitriol]
NAGS; [1]
  Fold change (Log 2) vs untreated, NAGS expression: 1.2 Log 2

## O=C(NOCCO)c1cc(CN2OCCCC2=O)c(F)c(F)c1Nc1ccc(I)cc1F [Compound R04987655]
CPS1; 1 μM
  Relative CPS1 level vs Untreated (±Standard Deviation): 1.46 ± 0.27
CPS1; 10 μM
  Relative CPS1 level vs Untreated (±Standard Deviation): 1.33 ± 0.21

## C[C@]12C[C@H](O)[C@H]3[C@@H](CCC4=CC(=O)CC[C@@]43C)[C@@H]1CC[C@@H]2C(=O)CO [Corticosterone]
SLC25A15; primary human hepatocytes, RNA-seq (Table 8)
  Fold change (Log 2) vs untreated, SLC25A15 expression: 0.96 Log 2

## O=C(N[C@H]1CN2CCC1CC2)c1cc2cccc(Cl)c2s1 [EVP-6124 (hydrochloride) (encenicline), encenicline]
NAGS; [1]
  Fold change (Log 2) vs untreated, NAGS expression: 0.75 Log 2

## CS[C@H]1SC[C@H]2C(=O)N(C)[C@@H](C(C)C)C(=O)OC[C@@H](NC(=O)c3cnc4ccccc4n3)C(=O)N[C@@H](C)C(=O)N(C)[C@@H]1C(=O)N(C)[C@@H](C(C)C)C(=O)OC[C@@H](NC(=O)c1cnc3ccccc3n1)C(=O)N[C@@H](C)C(=O)N2C [Echinomycin]
SLC25A15; Example 11, relative mRNA vs DMSO
  Increase in SLC25A15 gene expression (qualitative): greatest increase
Urea cycle genes
  number of urea cycle genes whose expression was significantly up-regulated: six

## CCn1c(=O)c(-c2ccc(-c3cncs3)cc2Cl)cc2cnc(Nc3ccc(N4CCN(C)CC4)cc3)nc21 [FRAX597]
Urea cycle genes
  number of urea cycle genes whose expression was significantly up-regulated: five
  Up-regulated Genes: CPS1, ASS1, OTC, ARG1, SLC25A15

## NC(=O)c1ccc(I)c([N+](=O)[O-])c1 [Iniparib (BSI-]
NAGS
  Relative NAGS level vs Untreated (±Standard Deviation): 1.35 ± 0.27

## NC(=O)c1ccc(I)c([N+](=O)[O-])c1 [Iniparib]
CPS1; 3 μM
  Relative CPS1 level vs Untreated (±Standard Deviation): 1.44 ± 0.01
NAGS; [2]
  Relative NAGS level vs Untreated (±Standard Deviation): 1.41 ± 0.00
ARG1; 3 μM
  Relative ARGI level vs Untreated (±Standard Deviation): 1.32 ± 0.15

## Cc1ccc(F)c(NC(=O)Nc2ccc(-c3cccc4[nH]nc(N)c34)cc2)c1 [Linifanib]
NAGS; 3 μM, primary human hepatocytes, triplicate (Table 21, FIG. 13)
  Relative NAGS level vs Untreated (±Standard Deviation): 1.32 ± 0.04

## N#CCNC(=O)c1ccc(-c2ccnc(Nc3ccc(N4CCOCC4)cc3)n2)cc1 [Momelotinib]
Urea cycle genes
  number of urea cycle genes whose expression was significantly up-regulated: three
  Up-regulated Genes: CPS1, OTC, ARG1

## CCN(CC)CCCCNc1ncc2cc(-c3cc(OC)cc(OC)c3)c(NC(=O)NC(C)(C)C)nc2n1 [PD173074]
CPS1; 3 μM
  Relative CPS1 level vs Untreated (±Standard Deviation): 1.35 ± 0.03
NAGS; 10 μM, primary human hepatocytes, triplicate (Table 21, FIG. 13)
  Relative NAGS level vs Untreated (±Standard Deviation): 1.30 ± 0.31
SLC25A15; 3 μM, primary human hepatocytes, triplicate (Table 24, FIG. 16A-B)
  Relative SLC25A15 level vs Untreated (±Standard Deviation): 1.30 ± 0.12

## [H]/N=C(/N)N/C(=N/[H])NCCc1ccccc1 [Phenformin]
NAGS
  Fold change (Log 2) vs untreated, NAGS expression: 1.38 Log 2

## CCCC(=O)O[C@@H]1[C@@H](C)[C@@]2(O)[C@@H](C=C(CO)C[C@]3(O)C(=O)C(C)=C[C@@H]23)[C@@H]2C(C)(C)[C@]12OC(=O)CCC [Phorbol 12, 13-dibutyrate]
NAGS; [1]
  Fold change (Log 2) vs untreated, NAGS expression: 0.62 Log 2

## CCc1ccc(CCOc2ccc(CC3SC(=O)NC3=O)cc2)nc1 (centres unmarked) [Pioglitazone HCl]
NAGS; [2]
  Relative NAGS level vs Untreated (±Standard Deviation): 1.33 ± 0.02
